For data set [1], the target named is RAC-beta serine/threonine-protein kinase (Homo sapiens, UniProt P31751). Kind of data set: Inhibition of Akt2 at 5 uM ATP.
Data set [2] addresses RAC-gamma serine/threonine-protein kinase (Homo sapiens, UniProt Q9Y243). Kind of data set: Inhibition of Akt3 at 5 uM ATP.
For data set [3], the target named is cAMP-dependent protein kinase (PKA) (Homo sapiens, UniProt P22694+P17612+P22612). Kind of data set: Inhibition of PKA at 5 uM ATP. In kind it is protein assay.
The target of data set [4] is Protein kinase C gamma type (Homo sapiens, UniProt P05129). The experiment in a line: Inhibition of PKC gamma at 5 uM ATP.
The target of data set [5] is T1, Protein kinase C epsilon type (Homo sapiens, UniProt Q02156).
T1 sequence (Q02156 whole entry): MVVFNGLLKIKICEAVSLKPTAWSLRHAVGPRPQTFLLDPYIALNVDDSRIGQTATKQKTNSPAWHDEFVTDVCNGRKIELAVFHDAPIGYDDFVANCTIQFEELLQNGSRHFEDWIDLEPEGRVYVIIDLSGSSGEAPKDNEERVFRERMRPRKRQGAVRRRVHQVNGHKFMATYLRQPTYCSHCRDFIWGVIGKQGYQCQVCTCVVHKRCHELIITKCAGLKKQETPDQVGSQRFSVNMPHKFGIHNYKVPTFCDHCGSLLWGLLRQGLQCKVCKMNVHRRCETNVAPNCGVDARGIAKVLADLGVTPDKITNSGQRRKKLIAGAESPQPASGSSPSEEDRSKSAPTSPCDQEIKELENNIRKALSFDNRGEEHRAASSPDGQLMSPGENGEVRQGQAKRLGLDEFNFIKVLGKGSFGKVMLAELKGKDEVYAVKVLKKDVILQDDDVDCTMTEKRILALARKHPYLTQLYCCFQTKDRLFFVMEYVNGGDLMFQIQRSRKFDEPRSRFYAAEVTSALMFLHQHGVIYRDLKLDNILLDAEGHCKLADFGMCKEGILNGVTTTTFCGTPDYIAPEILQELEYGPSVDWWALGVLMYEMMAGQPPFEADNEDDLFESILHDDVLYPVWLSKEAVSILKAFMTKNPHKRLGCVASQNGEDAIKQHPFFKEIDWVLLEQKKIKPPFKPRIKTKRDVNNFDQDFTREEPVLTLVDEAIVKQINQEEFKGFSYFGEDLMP
Kind of data set: Inhibition of PKC epsilon at 5 uM ATP.

The target in data set [6] is Cyclin-dependent kinase 1 (Homo sapiens, UniProt P06493). The experiment in a line: Inhibition of CDK1 at 5 uM ATP.
Cyclin-dependent kinase 1, sequence (P06493 whole entry): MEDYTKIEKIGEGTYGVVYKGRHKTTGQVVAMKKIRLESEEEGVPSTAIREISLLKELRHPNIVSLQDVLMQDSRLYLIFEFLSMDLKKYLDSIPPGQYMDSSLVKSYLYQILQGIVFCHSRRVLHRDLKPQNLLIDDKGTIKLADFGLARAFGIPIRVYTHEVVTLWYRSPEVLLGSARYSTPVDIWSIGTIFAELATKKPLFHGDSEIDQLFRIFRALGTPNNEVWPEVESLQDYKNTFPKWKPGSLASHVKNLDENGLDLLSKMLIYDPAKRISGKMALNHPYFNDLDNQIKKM
Data set [7] addresses Mitogen-activated protein kinase 1 (Homo sapiens, UniProt P28482). The experiment in a line: Inhibition of ERK2 at 5 uM ATP.
Another data set addresses Casein kinase II (Homo sapiens, UniProt P19784+P67870+P68400). Kind of data set: Inhibition of CK2 at 5 uM ATP. In kind it is protein-complex assay.
The target of data set [8] is Proto-oncogene tyrosine-protein kinase Src (Homo sapiens, UniProt P12931). Kind of data set: Inhibition of SRC at 5 uM ATP.
Proto-oncogene tyrosine-protein kinase Src, sequence (P12931 2-536 limits assumed): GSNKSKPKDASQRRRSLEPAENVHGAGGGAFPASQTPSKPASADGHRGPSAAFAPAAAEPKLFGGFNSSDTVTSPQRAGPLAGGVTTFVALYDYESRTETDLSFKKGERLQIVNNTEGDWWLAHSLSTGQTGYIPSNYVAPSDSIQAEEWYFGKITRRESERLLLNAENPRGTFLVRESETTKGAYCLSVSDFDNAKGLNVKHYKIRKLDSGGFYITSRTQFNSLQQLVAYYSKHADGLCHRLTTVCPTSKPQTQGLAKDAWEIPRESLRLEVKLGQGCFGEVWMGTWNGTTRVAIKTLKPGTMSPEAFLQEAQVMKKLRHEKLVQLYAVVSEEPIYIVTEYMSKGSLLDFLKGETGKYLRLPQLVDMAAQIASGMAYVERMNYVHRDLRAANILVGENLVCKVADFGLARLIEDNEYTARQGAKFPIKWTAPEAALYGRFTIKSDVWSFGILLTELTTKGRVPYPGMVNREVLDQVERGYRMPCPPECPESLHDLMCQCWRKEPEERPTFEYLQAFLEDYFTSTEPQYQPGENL
For another data set, the system named is MIA PaCa-2. The experiment in a line: Antiproliferative activity against human MiaPaCa2 cells by MTT assay. In kind it is functional, cell-based. Background: Tetrazolium assays rely on reduction of a dye to a coloured formazan, in cell work by metabolically active cells.
Data set [9] is described as follows: Half life in CD1 mouse at 3 mg/kg, iv. In kind it is ADME, organism-based. More on the design: dose 3 mg/kg, route intravenous. Particulars: in vivo.
Data set [10] can be described thus: Volume of distribution in CD1 mouse at 3 mg/kg, iv or 10 mg/kg, po or 30 mg, sc. Particulars: in vivo, read-out: Vdss. It counts as ADME, organism-based.
Data set [11] in a line: Clearance in CD1 mouse at 3 mg/kg, iv or 10 mg/kg, po or 30 mg, sc. It counts as ADME, organism-based. More on the design: unit not given here. Particulars: in vivo.
Data set [12] in a line: AUC in CD1 mouse at 10 mg/kg, po. In kind it is ADME, organism-based. More on the design: dose 10 mg/kg, route oral. Particulars: plasma.
The nature of data set [13]: Bioavailability in CD1 mouse at 10 mg/kg, po. It counts as ADME, organism-based. Particulars: in vivo.
In data set [14] the target is RAC-alpha serine/threonine-protein kinase (Homo sapiens, UniProt P31749). The experiment in a line: Inhibition of GSK3 phosphorylation. It counts as functional.
RAC-alpha serine/threonine-protein kinase, sequence (P31749 whole entry): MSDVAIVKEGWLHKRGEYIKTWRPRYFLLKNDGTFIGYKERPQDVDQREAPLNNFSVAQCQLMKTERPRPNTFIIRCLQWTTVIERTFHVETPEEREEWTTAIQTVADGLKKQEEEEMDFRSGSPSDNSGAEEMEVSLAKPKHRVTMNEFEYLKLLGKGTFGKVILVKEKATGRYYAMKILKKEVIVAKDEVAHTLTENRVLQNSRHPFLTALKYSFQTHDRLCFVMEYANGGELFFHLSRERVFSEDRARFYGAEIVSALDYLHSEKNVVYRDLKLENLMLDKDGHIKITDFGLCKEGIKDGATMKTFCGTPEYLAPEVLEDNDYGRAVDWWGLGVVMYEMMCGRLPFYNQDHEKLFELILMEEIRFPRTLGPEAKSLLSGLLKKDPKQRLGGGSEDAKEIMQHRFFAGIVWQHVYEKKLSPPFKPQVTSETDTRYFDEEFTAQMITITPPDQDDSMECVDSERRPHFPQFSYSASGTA
The nature of data set [15]: AUC in CD1 mouse at 30 mg, sc. It counts as ADME, organism-based. Particulars: plasma.
Data set [16] is described as follows: Antiproliferative activity against mouse FL5.12 cells overexpressing Akt1 by MTT assay.

Where only a bound is given, the exact number is not on record here.

For orientation: IC50 means the concentration needed to halve the response being measured. Broadly, the half-life is how long it takes for the measured level to halve. The AUC is the area under the concentration-time curve, a measure of exposure. For orientation: bioavailability means dose-corrected exposure relative to a reference, in per cent.

RAC-gamma serine/threonine-protein kinase, sequence (Q9Y243 whole entry): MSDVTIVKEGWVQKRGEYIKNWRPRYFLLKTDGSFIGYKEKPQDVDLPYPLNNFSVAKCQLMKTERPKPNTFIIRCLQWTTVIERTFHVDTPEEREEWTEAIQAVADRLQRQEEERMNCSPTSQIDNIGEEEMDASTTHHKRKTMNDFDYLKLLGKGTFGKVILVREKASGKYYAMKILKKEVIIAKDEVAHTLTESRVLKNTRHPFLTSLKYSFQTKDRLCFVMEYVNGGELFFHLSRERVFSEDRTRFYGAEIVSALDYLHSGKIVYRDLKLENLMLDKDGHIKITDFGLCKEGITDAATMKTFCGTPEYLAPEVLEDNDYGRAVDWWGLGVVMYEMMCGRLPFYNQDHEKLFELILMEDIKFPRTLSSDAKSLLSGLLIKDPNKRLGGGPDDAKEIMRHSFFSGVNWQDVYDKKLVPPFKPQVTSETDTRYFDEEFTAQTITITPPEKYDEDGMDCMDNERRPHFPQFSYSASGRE
Casein kinase II, sequence (P67870 whole entry): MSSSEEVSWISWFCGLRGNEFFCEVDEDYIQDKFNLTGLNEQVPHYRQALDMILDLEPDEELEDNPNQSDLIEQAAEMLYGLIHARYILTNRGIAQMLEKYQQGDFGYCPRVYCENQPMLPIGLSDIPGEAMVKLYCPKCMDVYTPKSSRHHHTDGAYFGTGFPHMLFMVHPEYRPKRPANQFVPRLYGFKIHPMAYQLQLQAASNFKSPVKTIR
Casein kinase II, sequence (P68400 whole entry): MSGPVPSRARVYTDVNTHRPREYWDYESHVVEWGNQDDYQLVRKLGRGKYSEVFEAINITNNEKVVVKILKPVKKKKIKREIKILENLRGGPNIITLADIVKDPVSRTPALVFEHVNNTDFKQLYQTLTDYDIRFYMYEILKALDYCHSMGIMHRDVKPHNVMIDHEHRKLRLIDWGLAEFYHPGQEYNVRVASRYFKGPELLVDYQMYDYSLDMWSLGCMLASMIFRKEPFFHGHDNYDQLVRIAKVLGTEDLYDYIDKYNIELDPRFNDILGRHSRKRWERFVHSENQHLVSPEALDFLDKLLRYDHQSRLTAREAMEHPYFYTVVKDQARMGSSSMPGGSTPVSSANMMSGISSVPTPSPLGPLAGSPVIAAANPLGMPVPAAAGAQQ
Casein kinase II, sequence (P19784 whole entry): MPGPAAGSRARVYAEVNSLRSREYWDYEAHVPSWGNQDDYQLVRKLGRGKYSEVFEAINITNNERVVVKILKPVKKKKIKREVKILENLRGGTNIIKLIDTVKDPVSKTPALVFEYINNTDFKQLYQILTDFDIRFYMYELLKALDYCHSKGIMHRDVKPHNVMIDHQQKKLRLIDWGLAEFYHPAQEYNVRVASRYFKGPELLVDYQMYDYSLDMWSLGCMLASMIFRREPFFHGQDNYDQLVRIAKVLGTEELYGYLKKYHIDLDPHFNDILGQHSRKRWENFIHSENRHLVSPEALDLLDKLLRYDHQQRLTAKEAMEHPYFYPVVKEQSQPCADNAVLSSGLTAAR
Mitogen-activated protein kinase 1, sequence (P28482 whole entry): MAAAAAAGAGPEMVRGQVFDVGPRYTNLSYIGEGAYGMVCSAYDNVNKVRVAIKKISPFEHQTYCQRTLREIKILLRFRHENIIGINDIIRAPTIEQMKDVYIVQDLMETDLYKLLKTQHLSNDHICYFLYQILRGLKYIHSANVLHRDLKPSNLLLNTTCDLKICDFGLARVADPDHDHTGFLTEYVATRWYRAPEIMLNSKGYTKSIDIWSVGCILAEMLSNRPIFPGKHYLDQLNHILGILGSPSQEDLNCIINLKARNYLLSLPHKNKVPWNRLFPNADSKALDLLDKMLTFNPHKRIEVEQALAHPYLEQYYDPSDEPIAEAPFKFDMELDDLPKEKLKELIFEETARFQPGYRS
RAC-beta serine/threonine-protein kinase, sequence (P31751 whole entry): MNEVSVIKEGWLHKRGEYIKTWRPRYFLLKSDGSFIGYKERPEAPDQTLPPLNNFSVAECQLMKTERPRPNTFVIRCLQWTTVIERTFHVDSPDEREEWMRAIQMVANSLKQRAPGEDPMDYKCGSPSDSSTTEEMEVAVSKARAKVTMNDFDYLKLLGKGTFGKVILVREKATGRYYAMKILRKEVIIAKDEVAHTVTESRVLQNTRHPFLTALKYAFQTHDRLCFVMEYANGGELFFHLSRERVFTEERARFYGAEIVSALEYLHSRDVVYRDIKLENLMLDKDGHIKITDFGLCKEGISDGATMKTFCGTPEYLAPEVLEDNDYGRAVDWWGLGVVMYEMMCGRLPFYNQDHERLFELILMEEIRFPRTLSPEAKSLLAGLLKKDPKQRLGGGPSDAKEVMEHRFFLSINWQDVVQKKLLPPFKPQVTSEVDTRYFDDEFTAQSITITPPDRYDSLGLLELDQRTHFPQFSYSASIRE

For `C#Cc1ncc(OC[C@@H](N)Cc2c[nH]c3ccccc23)cc1-c1ccc2cnccc2c1`, the IC50 in data set [1] stood at 0.005 µM; in [2], 0.039 µM; in data set [3], 0.001 µM; in data set [4], 0.26 µM; in [5], 8.9 µM; in [6], 4.9 µM. In addition, the IC50 in data set [7] is 27.2 µM; at Casein kinase II it was more than 50 µM; in data set [8] it was more than 50 µM; with MIA PaCa-2 it was 10.8 µM.
Compound `N[C@H](COc1cncc(-c2ccc3c(Cl)nccc3c2)c1)Cc1c[nH]c2ccccc12` had a half-life in data set [9] of 5 h. Further, in data set [10], the Vd was 9.5 L/kg. The compound further showed a clearance in data set [11] of 21.7. Besides, in data set [12], the AUC was found to be 3900 ng·h/mL. The bioavailability in [13] was 51%.
On the same counts, the results for `Cc1cc(-c2cncc(OC[C@@H](N)Cc3c[nH]c4ccccc34)c2)cc2ccncc12` are 4.5 h, 16.4 L/kg, 41.7, 1500 ng·h/mL and 35%.
As to `N[C@H](COc1cncc(-c2ccc3cnc(F)cc3c2)c1)Cc1c[nH]c2ccccc12`, the 50% inhibitory concentration (IC50) came to 0.048 µM in [3], 3.4 µM in [6], 18 µM in data set [8] and 3.18 µM with MIA PaCa-2.
With `Nc1cc2cc(-c3cncc(OC[C@@H](N)Cc4c[nH]c5ccccc45)c3)ccc2cn1`, the IC50 in data set [1] was found to be 0.021 µM; in data set [2], 0.076 µM; in data set [3] it was 0.008 µM; in data set [4], 0.031 µM; in data set [5] it was 8.3 µM; in data set [6], 0.022 µM. Besides, the IC50 in [7] was found to be 1.2 µM; against Casein kinase II, 0.62 µM; in [8], 0.48 µM; in [14], 0.93 µM; in the data set with MIA PaCa-2, 0.1 µM. This compound also gave a half-life in data set [9] of 0.7 h. The Vd in data set [10] stood at 11.8 L/kg. The same compound had a clearance in [11] of 202. The AUC in [15] turned out to be 6900 ng·h/mL. Moreover, the bioavailability in [13] turned out to be 0%.
In the case of `N[C@H](COc1cncc(-c2ccc3cnc(Cl)cc3c2)c1)Cc1c[nH]c2ccccc12`, in data set [9], the half-life was 2 h. Besides, the Vd in data set [10] came out at 15.5 L/kg. Besides, in data set [11], the clearance was 90. In addition, the exposure (AUC) in data set [12] is 910 ng·h/mL. Further, the bioavailability in data set [13] was found to be 27%.
Turning to `N[C@H](COc1cnc(Cl)c(-c2ccc3cnccc3c2)c1)Cc1c[nH]c2ccccc12`, the IC50 in data set [1] was 0.005 µM; in [2] it was 0.073 µM; in [3], 0.005 µM; in data set [4], 0.54 µM; in data set [5] it was more than 5 µM; in data set [6] it was 0.87 µM. For the same compound, the 50% inhibitory concentration (IC50) in data set [7] was determined as 37 µM; at Casein kinase II it was 12.7 µM; in data set [8] it was 12.1 µM; in data set [14] it was 3 µM; with MIA PaCa-2, 13.3 µM.
With `N[C@H](COc1cncc(-c2ccc3cnccc3c2)c1)Cc1c[nH]c2ccccc12`, the IC50 turned out to be 6.1 µM in [5], 2 µM in data set [8], 1.5 µM in data set [14] and 0.42 µM in data set [16]. For the same compound, the half-life in [9] is 0.3 h. In data set [10], the Vd came out at 7 L/kg. Besides, the AUC in [15] stood at 7600 ng·h/mL. For the same compound, in [13], the bioavailability was 0%.

The values above are taken from ChEMBL document CHEMBL1147830, “Isoquinoline-pyridine-based protein kinase B/Akt antagonists: SAR and in vivo antitumor activity” (Bioorg Med Chem Lett, 2006).
